Results on twelve molecules are retold here after PubChem BioAssay (NCI).

Among the test systems are OVCAR-8 ovarian; HOP-92 NSCLC; DMS 114 small cell lung; RXF 393 renal; OVCAR-3 ovarian; A549 NSCLC; XF 498 CNS; UO-31 renal; KM20L2 colon; SNB-78 CNS; NCI-H460 lung; M14 melanoma.
Experiment in all cases: NCI tumour cell line growth inhibition, 48 h

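96-well plates; 48 h exposure; 5 concentrations. Endpoints by linear interpolation between flanking doses. Not reached: highest tested concentration assigned. GI50 is the concentration that inhibits growth by half. TGI is the concentration that stops growth completely.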

As for `Cc1[nH]c(=O)[nH]c(=O)c1/C=C/C(=O)NC(CO)CS(=O)Cc1ccccc1` (stereo not drawn), the TGI in the test on OVCAR-8 ovarian, in the test on HOP-92 NSCLC, in the test with DMS 114 small cell lung, in the test on RXF 393 renal, in the test with OVCAR-3 ovarian and in the test with A549 NSCLC was more than 300 µM each time. In addition, the TGI with XF 498 CNS, in the test with UO-31 renal, with KM20L2 colon, in the test with SNB-78 CNS and in the test with NCI-H460 lung was more than 300 µM in each case.
Turning to `CC(C)C(=O)CC(c1ccc(Cl)cc1)N1N=C(C(C)C)CC1c1ccc(Cl)cc1` (stereo not drawn), the TGI is more than 65.8 µM with OVCAR-8 ovarian; more than 100 µM in the test with M14 melanoma; more than 100 µM in the test with HOP-92 NSCLC; more than 100 µM in the test on DMS 114 small cell lung; more than 100 µM with RXF 393 renal; more than 100 µM in the test with OVCAR-3 ovarian. Besides, the TGI in the test with A549 NSCLC, in the test on UO-31 renal, in the test with KM20L2 colon, in the test with SNB-78 CNS and in the test on NCI-H460 lung was more than 100 µM throughout. The GI50 in the test on M14 melanoma was 54.5 µM; in the test on OVCAR-3 ovarian it was 45.6 µM.
Take `C#C/C=C\CCCCCCCCCCCCCC/C=C\CCCCC#CC(O)C#CCCCC/C=C\CCCCCC/C=C/C(O)C#C` (stereo not drawn): the TGI in the test with OVCAR-8 ovarian was more than 59.5 µM; in the test on M14 melanoma, more than 38.3 µM; with HOP-92 NSCLC it was 36.8 µM; in the test on RXF 393 renal it was 41.4 µM; with OVCAR-3 ovarian, more than 55.1 µM; in the test with A549 NSCLC, 37.1 µM. For the same molecule, the TGI with UO-31 renal was 37.4 µM; in the test with NCI-H460 lung, more than 75 µM.
Regarding `O=[N+]([O-])c1ccc(Oc2c(Cl)cc(S(=O)(=O)/N=C(\NO)Nc3ccc(Cl)cc3)cc2Cl)c(Cl)c1`, the TGI in the test with OVCAR-8 ovarian came to 54.1 µM; in the test on M14 melanoma, 30.1 µM; in the test on HOP-92 NSCLC, 31.2 µM; in the test with RXF 393 renal, 26.5 µM; in the test with OVCAR-3 ovarian, 24.7 µM; in the test with A549 NSCLC it was 32.1 µM. Besides, the TGI with UO-31 renal stood at 26.5 µM; with NCI-H460 lung, 37.2 µM.
For the molecule `CC(Oc1ccccc1Cl)C(=O)NN1C(=O)CC(=O)NC1=S` (stereo not drawn), the TGI with OVCAR-8 ovarian, in the test on M14 melanoma, in the test with HOP-92 NSCLC, in the test with RXF 393 renal, with OVCAR-3 ovarian and with A549 NSCLC was more than 100 µM throughout. For the same molecule, the TGI in the test on UO-31 renal and in the test with NCI-H460 lung was more than 100 µM each time.
Regarding `O=C(O)c1cc(=O)c2c(OCC(O)COc3cccc4oc(C(=O)O)cc(=O)c34)cccc2o1`, the TGI in the test on OVCAR-8 ovarian is more than 100 µM; with M14 melanoma, more than 100 µM; in the test on HOP-92 NSCLC, more than 93.8 µM; with RXF 393 renal, more than 100 µM; in the test with OVCAR-3 ovarian, more than 100 µM; with A549 NSCLC, more than 100 µM. Moreover, the TGI with UO-31 renal and with NCI-H460 lung was more than 100 µM each time.
For the molecule `Cc1ccc([N+](=O)[O-])cc1S(=O)(=O)Nc1ccc(C2=NOC(c3cccs3)C2)cc1` (stereo not drawn), the TGI is 69.9 µM in the test on OVCAR-8 ovarian; 20.8 µM in the test with M14 melanoma; 57 µM with HOP-92 NSCLC; 22.4 µM with RXF 393 renal; 19.7 µM in the test with OVCAR-3 ovarian; 67.2 µM with A549 NSCLC. Also, the TGI was 21.9 µM in the test with UO-31 renal and 28.8 µM in the test with NCI-H460 lung.
For the molecule `COc1cc2c(cc1OCCCOS(C)(=O)=O)N=C[C@@H]1CCCN1C2=O`, the TGI in the test with OVCAR-8 ovarian, with M14 melanoma, in the test with HOP-92 NSCLC, in the test on RXF 393 renal, in the test with OVCAR-3 ovarian and in the test on A549 NSCLC was more than 100 µM in each case. Moreover, the TGI in the test with UO-31 renal and in the test with NCI-H460 lung was more than 100 µM throughout.
Regarding `OCCCNc1ncnc2[nH]ncc12`, the TGI in the test on OVCAR-8 ovarian, in the test on M14 melanoma, in the test on HOP-92 NSCLC, with RXF 393 renal, in the test with OVCAR-3 ovarian and in the test with A549 NSCLC was more than 100 µM each time. The TGI in the test on UO-31 renal and with NCI-H460 lung was more than 100 µM each time.
For the molecule `CCOC(=O)CCSc1nc2ccc(I)cc2c(=O)n1Cc1ccccc1`, the TGI was more than 100 µM in the test with OVCAR-8 ovarian; more than 100 µM in the test with M14 melanoma; 53.5 µM in the test on HOP-92 NSCLC; more than 100 µM in the test with RXF 393 renal; more than 84.5 µM in the test with OVCAR-3 ovarian; more than 100 µM with A549 NSCLC. The TGI is 1.42 µM with UO-31 renal and more than 100 µM in the test on NCI-H460 lung.
On to `N#CCCN(CCC#N)c1ccc(/C=C(\NC(=O)c2cc([N+](=O)[O-])ccc2Cl)C(=O)Nc2ccccc2)cc1`, for which the TGI in the test with OVCAR-8 ovarian, in the test on HOP-92 NSCLC, with DMS 114 small cell lung, with RXF 393 renal, in the test with OVCAR-3 ovarian and in the test on A549 NSCLC was more than 100 µM throughout. Besides, the TGI in the test with XF 498 CNS, in the test on UO-31 renal, with KM20L2 colon and with SNB-78 CNS was more than 100 µM in each case.
`CCCn1cc2c(SC)nc(SC)nc2n1`: the TGI in the test on OVCAR-8 ovarian, in the test with M14 melanoma, with HOP-92 NSCLC, in the test on DMS 114 small cell lung, with RXF 393 renal and with A549 NSCLC was more than 100 µM throughout. Further, the TGI in the test with XF 498 CNS, with UO-31 renal, in the test with SNB-78 CNS and in the test on NCI-H460 lung was more than 100 µM each time.
